Results: publication PMC5847527, “Identification of a novel 2-oxindole fluorinated derivative as in vivo antitumor agent for prostate cancer acting via AMPK activation” (Scientific Reports, 2018)
pIC50: −log10 of the molar value.

Key:
Assay type in all cases: cell-based, human
[1] = test system: Raptor; test: Raptor phosphorylation on Ser792 by Western blot in PC-3 and LNCaP cells; details: 25 µM
Description: To further confirm the compound 8c-induced activation of AMPK, PC-3 and LNCaP cells were incubated with the compound for 1 h and 24 hours in the presence of the AMPK inhibitor Dorsomorphin. […] Accordingly, ACC phosphorylation was increased at 1 h and 24 h and prevented by Dorsomorphin in both cell lines. AMPK inhibits mTORC1 through phosphorylation of Raptor on two well-conserved serine residues (ser722 and ser792) inducing cell-cycle arrest in response to an energy stress. To further support the 8c-induced AMPK activation, we determined Raptor phosphorylation on Ser792 in prostate cells.
Figure 5 AMPK activation by compound 8c in prostate cancer cells. (A) PC-3 and LNCaP cells were treated with vehicle, 25 µM compound 8c, 25 µM compound 8c + 5 μM Dorsomorphin (8c + D) or 5 μM Dorsomorphin (D), for 1 hour or 24 hours and levels of the phosphorylated AMPK (pAMPK), phosphorylated ACC (pACC), phosphorylated Raptor (pRaptor) forms and HIF1α were determined by Western blot. Upper panel, representative Western blot of three different experiments. β-tubulin (β-Tub) serves as a loading control. […] (B) Cell viability monitored by MTT assay in PC-3 and LNCaP cells treated with vehicle, 25 µM and 50 μM compound 8c alone or in the presence of 5 μM Dorsomorphin or transfected with control siRNA (siC) or α1AMPK-selective siRNA (siAMPK). […]

[2] = test system: RWPE-1 cells; test: Cell viability by MTT assay, RWPE-1 normal prostate cells
Description: (§1) Figure 3 Comparison of the effect of 2-oxindole fluorinated derivatives on the proliferation of human prostate cancer cells. (A) Normal (PTN2 and RWPE-1) and cancer (PC3,DU145 and LNCaP) prostate cells were treated with different doses of the compounds for 24 hours and cell viability was monitored by MTT assay. […] (C) PC-3, DU145 and LNCaP cells were treated with 25 µM of compound 8c for different times. Values were normalized with the control and represent the mean ± SD of at least three independent experiments. *p < 0.05 and **p < 0.01 compared to control by the Student’s - test.
(§2) Human prostate cancer epithelial PC-3, DU145 and LNCaP and human prostate normal RWPE-1 cells were purchased from American Type Culture Collection (ATCC CRL-1435 CRL-1740 and CRL 11609 respectively) (Rockville, MD, USA). The human prostate normal PNT2 cell line was purchased to ECACC (European Collection of Cell cultures, Salisbury, SP4 0JG, UK). Cells were routinely grown in RPMI 1640 medium supplemented with 100 IU/ml penicillin G sodium, 100 µg/ml streptomycin sulfate, 0.25 µg/ml amphotericin B (Invitrogen, Paisley, UK) and 10% fetal calf serum. Cells were used at passages between 10–20. For treatment experiments, cells were plated and grown over night, the medium was then replaced with serum-free RPMI 1640 for 24 hours and then incubated with different doses of the compounds for the indicated times.
(§3) Cell viability was determined by 3-(4,5-dimethylthiazol-2-yl)-2,5-diphenyltetrazolium bromide (MTT) (Sigma-Aldrich) method. […] The optical density in each well was evaluated by measurement of absorbance at 490 and 650 nm using a microplate reader (ELX 800 Bio-Tek Intruments, INC). IC50 values were calculated using GraphPad Prism vs 6.0 (GraphPad Software, Inc, La Jolla, CA, USA). Cell viability was also determined by counting viable and dead cells by Trypan blue staining. Trypan blue positive and negative cells were counted using a Countess^TM automated cell counter (Invitrogen, Carlsbad, CA, USA). Results were expressed in relation to total number of cells counted.

[3] = test system: PNT2 cells; test: Cell viability by MTT assay, PNT2 normal prostate cells
Description: as §1, §2, §3

## O=C1Nc2ccccc2C1(F)Cc1ccc(-c2ccccc2)o1 (centres unmarked) [Compound 8c, 3-fluoro-3-((5-phenylfuran-2-yl)methyl)indolin-2-one]
[1]
  Raptor phosphorylation on Ser792 (p-Raptor): increase in p-Raptor
[2]; Homo sapiens, RWPE-1, MTT, 24 hours
  pIC50: < 3.00
[2]; RWPE-1, 50 μM
  inhibitory efficacy on cells viability at 50 μM: 50%
[3]; Homo sapiens, PNT2, MTT, 24 hours
  pIC50: 4.19
[3]; PNT2, 50 μM
  inhibitory efficacy on cells viability at 50 μM: 56%
